Reference: ChEMBL document CHEMBL5465560, “Selectivity Literature for EUbOPEN Chemogenomic Library” (2024)

Legend:
[1] = molecular target: T1, Cyclin-dependent kinase-like 2 (Homo sapiens) (UniProt Q92772); assay: Selectivity interaction (Ambit KINOMEscan and KiNATiv profiling in Jurkat cells) EUB0000090b CDKL2; format: cell-based; details: at 1 µM
T1 sequence (whole entry): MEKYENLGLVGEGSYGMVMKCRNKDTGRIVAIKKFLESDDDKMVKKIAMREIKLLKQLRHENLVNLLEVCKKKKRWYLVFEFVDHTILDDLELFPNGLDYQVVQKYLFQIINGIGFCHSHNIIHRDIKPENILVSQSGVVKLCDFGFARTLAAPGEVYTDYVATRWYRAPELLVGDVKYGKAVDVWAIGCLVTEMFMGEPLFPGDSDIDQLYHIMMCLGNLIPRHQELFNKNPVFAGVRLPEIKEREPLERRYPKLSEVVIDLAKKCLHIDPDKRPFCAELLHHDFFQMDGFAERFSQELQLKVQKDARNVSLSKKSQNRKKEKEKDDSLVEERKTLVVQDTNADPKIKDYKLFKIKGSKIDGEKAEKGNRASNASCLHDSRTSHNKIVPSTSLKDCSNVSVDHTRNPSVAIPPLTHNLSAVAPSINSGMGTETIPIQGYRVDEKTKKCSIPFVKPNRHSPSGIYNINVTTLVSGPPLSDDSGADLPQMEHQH

[2] = molecular target: Insulin receptor-related protein (Homo sapiens) (UniProt P14616); assay: Selectivity interaction (KinomeScan (DiscoverX)) EUB0000607a INSRR; details: at 10 µM
[3] = molecular target: T2, Serine/threonine-protein kinase ULK3 (Homo sapiens) (UniProt Q6PHR2); details: at 10 µM
T2 sequence (whole entry): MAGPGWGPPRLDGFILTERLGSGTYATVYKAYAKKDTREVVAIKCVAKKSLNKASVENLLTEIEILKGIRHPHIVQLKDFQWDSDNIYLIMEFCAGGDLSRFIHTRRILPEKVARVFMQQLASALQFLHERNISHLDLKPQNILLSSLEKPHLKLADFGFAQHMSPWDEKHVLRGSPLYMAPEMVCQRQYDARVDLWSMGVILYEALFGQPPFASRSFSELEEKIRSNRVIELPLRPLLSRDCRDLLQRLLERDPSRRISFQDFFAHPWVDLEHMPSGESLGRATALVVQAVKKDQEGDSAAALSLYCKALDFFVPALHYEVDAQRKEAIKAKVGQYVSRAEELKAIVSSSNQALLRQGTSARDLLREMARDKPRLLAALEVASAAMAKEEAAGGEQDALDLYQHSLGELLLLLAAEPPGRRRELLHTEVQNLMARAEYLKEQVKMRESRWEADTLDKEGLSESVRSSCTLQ

[4] = molecular target: Serine/threonine-protein kinase 10 (Homo sapiens) (UniProt O94804); assay: Selectivity interaction (ActivX KiNativ screen (kinase selectivity in THP-1 cell lysates)) EUB0000639a STK10; format: subcellular; details: lysate, at 5 µM
[5] = molecular target: T3, Mitogen-activated protein kinase 12 (Homo sapiens) (UniProt P53778); assay: Selectivity interaction (KinomeScan (DiscoverX)) EUB0000666a MAPK12; details: at 10 µM
T3 sequence (whole entry): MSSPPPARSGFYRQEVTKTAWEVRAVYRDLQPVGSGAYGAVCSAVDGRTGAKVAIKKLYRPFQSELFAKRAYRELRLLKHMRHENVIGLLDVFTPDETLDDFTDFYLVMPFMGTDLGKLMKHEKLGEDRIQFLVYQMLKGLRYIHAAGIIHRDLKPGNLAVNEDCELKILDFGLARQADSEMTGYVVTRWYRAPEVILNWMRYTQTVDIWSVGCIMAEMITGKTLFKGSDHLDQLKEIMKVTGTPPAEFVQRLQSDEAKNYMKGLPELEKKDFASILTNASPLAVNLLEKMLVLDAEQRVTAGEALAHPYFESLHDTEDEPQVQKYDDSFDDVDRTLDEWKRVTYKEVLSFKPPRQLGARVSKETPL

[6] = molecular target: T4, 3-phosphoinositide-dependent protein kinase 1 (Homo sapiens) (UniProt O15530); assay: Selectivity interaction (KinomeScan (DiscoverX)) EUB0000092b PDPK1; details: at 10 µM
T4 sequence (whole entry): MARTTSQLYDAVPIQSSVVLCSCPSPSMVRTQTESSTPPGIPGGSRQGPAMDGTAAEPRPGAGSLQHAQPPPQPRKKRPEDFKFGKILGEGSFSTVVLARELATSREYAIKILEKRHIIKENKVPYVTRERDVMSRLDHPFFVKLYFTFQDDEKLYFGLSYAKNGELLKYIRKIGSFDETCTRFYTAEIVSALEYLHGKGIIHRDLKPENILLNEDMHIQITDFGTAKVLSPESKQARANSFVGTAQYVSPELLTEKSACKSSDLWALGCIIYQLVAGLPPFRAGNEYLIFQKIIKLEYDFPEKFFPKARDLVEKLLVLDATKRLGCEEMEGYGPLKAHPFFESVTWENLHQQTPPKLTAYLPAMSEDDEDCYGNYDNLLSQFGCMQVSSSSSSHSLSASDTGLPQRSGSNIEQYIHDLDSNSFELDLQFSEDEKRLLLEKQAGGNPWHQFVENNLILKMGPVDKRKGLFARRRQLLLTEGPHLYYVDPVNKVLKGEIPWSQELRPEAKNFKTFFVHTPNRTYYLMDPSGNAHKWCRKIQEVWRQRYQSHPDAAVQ

[7] = molecular target: Serine/threonine-protein kinase 38-like (Homo sapiens) (UniProt Q9Y2H1); assay: Selectivity interaction (KinomeScan (DiscoverX)) EUB0000092b STK38L; details: at 10 µM
[8] = molecular target: Serine/threonine-protein kinase PAK 1 (Homo sapiens) (UniProt Q13153); assay: Selectivity interaction (KinomeScan (DiscoverX)) EUB0000695a PAK1; details: at 100 nM
Sequence of Serine/threonine-protein kinase PAK 1 (Homo sapiens) (Q13153 whole entry): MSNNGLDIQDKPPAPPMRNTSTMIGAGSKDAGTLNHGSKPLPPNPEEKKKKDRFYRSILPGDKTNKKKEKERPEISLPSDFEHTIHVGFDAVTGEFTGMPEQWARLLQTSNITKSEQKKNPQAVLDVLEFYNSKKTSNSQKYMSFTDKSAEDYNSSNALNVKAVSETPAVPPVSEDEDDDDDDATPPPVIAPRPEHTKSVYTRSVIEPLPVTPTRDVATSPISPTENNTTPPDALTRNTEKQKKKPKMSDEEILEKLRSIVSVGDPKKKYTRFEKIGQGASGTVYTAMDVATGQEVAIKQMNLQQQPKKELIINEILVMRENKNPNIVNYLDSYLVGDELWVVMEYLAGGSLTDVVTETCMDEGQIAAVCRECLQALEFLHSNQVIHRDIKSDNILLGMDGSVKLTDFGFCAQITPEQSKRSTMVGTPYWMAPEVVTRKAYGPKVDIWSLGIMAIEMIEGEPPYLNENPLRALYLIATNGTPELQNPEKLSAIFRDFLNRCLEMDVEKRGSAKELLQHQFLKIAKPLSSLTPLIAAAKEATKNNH

Sequence of Serine/threonine-protein kinase 38-like (Homo sapiens) (Q9Y2H1 2-464 limits assumed): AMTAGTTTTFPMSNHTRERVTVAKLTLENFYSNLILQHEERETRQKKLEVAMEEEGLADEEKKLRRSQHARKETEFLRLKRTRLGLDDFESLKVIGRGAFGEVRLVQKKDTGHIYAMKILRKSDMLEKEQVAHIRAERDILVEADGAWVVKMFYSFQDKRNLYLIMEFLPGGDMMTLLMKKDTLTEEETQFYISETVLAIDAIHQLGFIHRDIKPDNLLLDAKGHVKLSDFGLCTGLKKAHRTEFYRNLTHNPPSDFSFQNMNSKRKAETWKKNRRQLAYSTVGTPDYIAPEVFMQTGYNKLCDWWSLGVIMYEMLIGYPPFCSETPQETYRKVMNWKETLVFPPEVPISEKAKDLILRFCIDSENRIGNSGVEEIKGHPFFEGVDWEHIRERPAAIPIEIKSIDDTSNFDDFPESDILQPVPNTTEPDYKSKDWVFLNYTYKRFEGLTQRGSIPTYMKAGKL
Sequence of Insulin receptor-related protein (Homo sapiens) (P14616 27-742 limits assumed): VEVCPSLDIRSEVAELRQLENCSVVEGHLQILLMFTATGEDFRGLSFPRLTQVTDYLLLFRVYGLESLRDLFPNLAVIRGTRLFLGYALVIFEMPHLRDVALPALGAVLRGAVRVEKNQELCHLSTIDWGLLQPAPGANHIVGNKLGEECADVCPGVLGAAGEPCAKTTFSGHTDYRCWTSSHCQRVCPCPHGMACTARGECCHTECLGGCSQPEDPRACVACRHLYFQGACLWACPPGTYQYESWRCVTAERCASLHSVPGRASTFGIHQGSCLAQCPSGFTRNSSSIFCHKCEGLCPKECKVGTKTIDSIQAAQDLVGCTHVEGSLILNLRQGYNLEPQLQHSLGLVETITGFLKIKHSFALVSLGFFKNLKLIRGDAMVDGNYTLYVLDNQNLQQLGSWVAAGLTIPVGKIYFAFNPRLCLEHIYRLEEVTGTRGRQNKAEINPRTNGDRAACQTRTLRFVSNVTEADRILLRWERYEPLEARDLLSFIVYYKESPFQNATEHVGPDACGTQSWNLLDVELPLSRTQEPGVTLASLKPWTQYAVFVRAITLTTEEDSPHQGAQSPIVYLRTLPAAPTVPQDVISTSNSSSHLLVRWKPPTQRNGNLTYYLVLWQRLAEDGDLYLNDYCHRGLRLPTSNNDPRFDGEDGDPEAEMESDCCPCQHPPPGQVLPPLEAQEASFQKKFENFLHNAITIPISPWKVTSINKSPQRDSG
Sequence of Insulin receptor-related protein (Homo sapiens) (P14616 747-1297 limits assumed): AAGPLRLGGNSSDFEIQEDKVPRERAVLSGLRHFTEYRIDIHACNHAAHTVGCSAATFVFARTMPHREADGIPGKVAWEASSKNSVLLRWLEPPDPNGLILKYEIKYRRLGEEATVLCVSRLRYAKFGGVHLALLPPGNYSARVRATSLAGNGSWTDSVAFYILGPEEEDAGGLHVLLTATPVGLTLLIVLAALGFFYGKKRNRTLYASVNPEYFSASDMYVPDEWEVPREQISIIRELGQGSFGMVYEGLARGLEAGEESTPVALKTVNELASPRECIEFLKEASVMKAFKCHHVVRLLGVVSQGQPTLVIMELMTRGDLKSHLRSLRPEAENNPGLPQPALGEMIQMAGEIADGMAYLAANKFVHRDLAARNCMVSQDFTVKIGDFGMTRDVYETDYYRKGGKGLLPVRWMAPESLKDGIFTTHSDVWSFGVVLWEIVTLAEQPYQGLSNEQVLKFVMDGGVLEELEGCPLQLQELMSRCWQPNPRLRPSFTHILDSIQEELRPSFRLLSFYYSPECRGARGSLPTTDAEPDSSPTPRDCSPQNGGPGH
Sequence of Serine/threonine-protein kinase 10 (Homo sapiens) (O94804 whole entry, looked up): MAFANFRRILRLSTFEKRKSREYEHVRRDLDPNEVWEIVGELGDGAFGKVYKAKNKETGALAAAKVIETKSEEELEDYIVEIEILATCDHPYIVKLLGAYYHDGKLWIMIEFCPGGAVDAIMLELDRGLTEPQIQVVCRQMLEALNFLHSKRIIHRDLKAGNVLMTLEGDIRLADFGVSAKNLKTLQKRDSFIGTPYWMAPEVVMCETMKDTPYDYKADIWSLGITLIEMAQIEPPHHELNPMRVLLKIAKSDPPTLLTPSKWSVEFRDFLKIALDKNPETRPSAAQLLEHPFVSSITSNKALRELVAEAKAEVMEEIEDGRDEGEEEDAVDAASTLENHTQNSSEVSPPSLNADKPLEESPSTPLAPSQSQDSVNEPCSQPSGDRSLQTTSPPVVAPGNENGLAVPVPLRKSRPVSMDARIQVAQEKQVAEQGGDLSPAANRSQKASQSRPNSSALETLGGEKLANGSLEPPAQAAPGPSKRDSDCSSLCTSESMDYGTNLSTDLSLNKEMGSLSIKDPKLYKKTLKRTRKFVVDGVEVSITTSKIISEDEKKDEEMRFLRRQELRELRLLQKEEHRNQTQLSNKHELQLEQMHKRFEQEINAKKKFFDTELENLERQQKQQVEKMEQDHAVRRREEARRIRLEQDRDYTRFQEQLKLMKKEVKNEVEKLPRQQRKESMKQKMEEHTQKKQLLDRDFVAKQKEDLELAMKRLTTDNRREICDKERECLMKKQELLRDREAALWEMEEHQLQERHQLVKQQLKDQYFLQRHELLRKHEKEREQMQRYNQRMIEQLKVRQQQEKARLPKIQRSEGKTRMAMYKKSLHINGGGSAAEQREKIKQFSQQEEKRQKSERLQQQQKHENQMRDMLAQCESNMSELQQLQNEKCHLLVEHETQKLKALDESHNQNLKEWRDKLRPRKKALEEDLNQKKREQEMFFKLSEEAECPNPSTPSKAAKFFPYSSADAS

## CN(C)C/C=C/C(=O)Nc1ccc(C(=O)N2CCCC(Nc3ncc(Cl)c(-c4c[nH]c5ccccc45)n3)C2)cc1 (stereo not drawn)
[1]
  % of control: 75%

## CNC(=O)Nc1ccc(-c2nc(N3CC4CCC(C3)O4)c3cnn(C4CCC5(CC4)OCCO5)c3n2)cc1
[2]
  % of control: 100%

## Cc1cc([C@@H](C)Nc2ccccc2C(=O)O)c2nc(N3CCOCC3)cc(=O)n2c1 [AZD-6482]
[3]
  % of control: 98%

## CC[C@@H]1[C@H](F)C(=O)N[C@@H]1COc1nccc2cc(C(N)=O)c(OC)cc12 [ZIMLOVISERTIB]
[4]
  % of inhibition: -16.6%

## O=C(NOC[C@H](O)CO)c1ccc(F)c(F)c1Nc1ccc(I)cc1F
[5]
  % of control: 100%

## CCC(=O)N1CCN(c2ccc(-n3c(=O)ccc4cnc5ccc(-c6cnc7ccccc7c6)cc5c43)cc2C(F)(F)F)CC1
[6]
  % of control: 100%
[7]
  % of control: 94%

## Cc1cc(F)c(C(=O)Nc2cccc(-c3nncn3C(C)C)n2)cc1-n1cnc(C2CC2)c1
[8]
  % of control: 100%
